Like-named read-outs stand apart in the source and are kept apart here.
Legend:
[1] = tested on: Magnaporthe grisea (Pyricularia oryzae—PYRIOR); test: microbe, parasite or virus in culture; format: cell-based; details: Pyricularia oryzae, read-out: PYRIOR in vitro Growth Inhibition
[2] = tested on: Rhizoctonia solani (RHIZSO); test: microbe, parasite or virus in culture; format: cell-based; details: Rhizoctonia solani, read-out: RHIZSO in vitro Growth Inhibition
[3] = tested on: Mycosphaerella graminicola (Septoria tritici—SEPTTR); test: In vitro fungal growth inhibition, Mycosphaerella graminicola (SEPTTR); format: cell-based; details: Zymoseptoria tritici, read-out: SEPTTR in vitro Growth Inhibition
[4] = tested on: Stagonospora nodorum (Leptosphaeria nodorum—LEPTNO); test: In vitro fungal growth inhibition, Stagonospora nodorum (LEPTNO); format: cell-based; details: Leptosphaeria, read-out: LEPTNO in vitro Growth Inhibition
Ustilago maydis (USTIMA) = test: microbe, parasite or virus in culture; format: cell-based; details: Mycosarcoma maydis, read-out: USTIMA in vitro Growth Inhibition
[5] = tested on: Phytophthora infestans (PHYTIN); test: microbe, parasite or virus in culture; format: cell-based; details: Phytophthora infestans, read-out: PHYTIN in vitro Growth Inhibition
[6] = tested on: Phytophthora infestans—PHYTIN; test: whole plant or invertebrate; format: in vivo; details: Phytophthora, in Solanum lycopersicum, 24 h, read-out: PHYTIN in vivo 1 Day Protectant
[7] = tested on: Puccinia recondita—PUCCRT; test: Brown Rust of Wheat, in vivo whole plant, 24 Hour Protectant; details: for pest or weed control at 100 ppm: Puccinia, read-out: PUCCRT in vivo 1 Day Protectant
Erysiphe graminis—ERYSGT = test: Powdery Mildew of Wheat, in vivo whole plant, 24 Hour Protectant; details: for pest or weed control at 100 ppm: Erysiphe, read-out: ERYSGT in vivo 1 Day Protectant
Septoria tritici—SEPTTR = test: Leaf Blotch of Wheat, in vivo whole plant, 24 Hour Protectant; details: for pest or weed control at 100 ppm: Zymoseptoria tritici, 24 h, control of fungal infection vs untreated plants, read-out: SEPTTR in vivo 1 Day Protectant; for SEPTTR in vivo 1 Day Protectant: % control of fungal infection vs untreated plants
[8] = tested on: Leptosphaeria nodorum—LEPTNO; test: Glume Blotch of Wheat, in vivo whole plant, 24 Hour Protectant; details: Leptosphaeria, read-out: LEPTNO in vivo 1 Day Protectant
[9] = 100 ppm spray, 24 hour protectant, wheat, control of fungal infection vs untreated plants
[10] = wheat plants sprayed at 100 ppm, inoculated after 24 hours, control of fungal infection vs untreated plants
[11] = wheat plants sprayed at 100 ppm, inoculated after 24 hours
[12] = 100 ppm spray, wheat, 24 hour protectant, % control of fungal infection vs untreated plants
[13] = 100 ppm spray, wheat, 24 hour protectant
[14] = 100 ppm spray, wheat, 24 hour protectant, control of fungal infection vs untreated plants

| Compound | inhibition at 25 ppm [1] | inhibition at 25 ppm [2] | inhibition at 25 ppm ([3]; 25 ppm in growth medium) | inhibition at 25 ppm ([4]; 25 ppm in growth medium) | inhibition at 25 ppm (Ustilago maydis (USTIMA)) | inhibition at 25 ppm [5] | pest or weed control at 100 ppm [6] | inhibition at 25 ppm ([3]; 25 ppm in the growth medium) | inhibition at 25 ppm ([4]; 25 ppm in the growth medium) | pest or weed control at 100 ppm [7, 10] | pest or weed control at 100 ppm (Erysiphe graminis—ERYSGT; [10]) | pest or weed control at 100 ppm (Septoria tritici—SEPTTR; [11]) | pest or weed control at 100 ppm [8, 10] | other results |
| --- | --- | --- | --- | --- | --- | --- | --- | --- | --- | --- | --- | --- | --- | --- |
| O=C(Nc1ccc(Cl)cc1)c1ncccc1O [Compound 213] | < 80% | < 80% | > 80% | < 80% | < 80% | > 80% | 25 to 74% |  |  |  |  |  |  | PUCCRT in vivo 1 Day Protectant [7, 9]: + +; pest or weed control at 100 ppm (Erysiphe graminis—ERYSGT; [9]): < 25%; pest or weed control at 100 ppm (Septoria tritici—SEPTTR; 100 ppm spray, 24 hour protectant, wheat): < 25%; pest or weed control at 100 ppm [8, 9]: < 25% |
| COC(=O)C(COC(=O)C(COC(=O)C(C)C)Cc1ccccc1)NC(=O)c1nccc(OC)c1OC(C)=O (stereo not shown) [Compound 587] | < 80% | < 80% |  |  | < 80% | < 80% | < 25% | < 80% | < 80% | 25 to 74% | < 25% | 25 to 74% | 25 to 74% |  |
| CSc1nnc(C(=O)N[C@H]2COC(=O)[C@H](Cc3ccccc3)[C@@H](OC(=O)C(C)C)[C@H](C)OC2=O)c(O)n1 [Compound 547] | < 80% | < 80% |  |  | < 80% | > 80% | 25 to 74% | < 80% | < 80% | 25 to 74% | < 25% | 25 to 74% | < 25% |  |
| COc1ccnc(C(=O)NC(COC(=O)C(Cc2ccccc2)C(C)OC(=O)C(C)C)C(=O)OC(C)C)c1OC(C)=O (stereo not shown) [Compound 589] | < 80% | < 80% |  |  | < 80% | < 80% | < 25% | < 80% | < 80% | 25 to 74% | < 25% | 25 to 74% | < 25% |  |
| Cc1cc(C)c(C(=O)N[C@H]2COC(=O)[C@H](Cc3ccccc3)[C@@H](OC(=O)C(C)C)[C@H](C)OC2=O)c(O)n1 [Compound 529] | < 80% | < 80% |  |  | < 80% | < 80% | < 25% | < 80% | < 80% | 25 to 74% | < 25% | 25 to 74% | 25 to 74% |  |
| COc1ccnc(C(=O)N[C@H]2COC(=O)[C@H](Cc3ccccc3)[C@@H](OC(=O)C(C)C)[C@H](C)OC2=O)c1OC(=O)O[C@@H]1C[C@H](C)CC[C@H]1C(C)C [Compound 690] | < 80% | < 80% | < 80% | < 80% | < 80% | < 80% | < 25% |  |  |  |  |  |  | pest or weed control at 100 ppm [7, 12]: 25 to 74%; pest or weed control at 100 ppm (Erysiphe graminis—ERYSGT; [12]): < 25%; SEPTTR in vivo 1 Day Protectant (Septoria tritici—SEPTTR; [13]): + +; pest or weed control at 100 ppm [8, 12]: 25 to 74% |
| CCCCCCC(=O)Oc1c(OC)ccnc1C(=O)N[C@H]1COC(=O)[C@H](Cc2ccccc2)[C@@H](OC(=O)C(C)C)[C@H](C)OC1=O [Compound 613] | < 80% | < 80% | < 80% | < 80% | < 80% | > 80% | 25 to 74% |  |  |  |  |  |  | PUCCRT in vivo 1 Day Protectant [7, 12]: + +; ERYSGT in vivo 1 Day Protectant (Erysiphe graminis—ERYSGT; [12]): + +; SEPTTR in vivo 1 Day Protectant (Septoria tritici—SEPTTR; [13]): + +; pest or weed control at 100 ppm [8, 12]: 25 to 74% |
| COc1cccc(Oc2ccccc2NC(=O)c2nccc(OC)c2O)c1 [Compound 428] | > 80% | < 80% | > 80% | < 80% | < 80% | < 80% | < 25% |  |  |  |  |  |  | pest or weed control at 100 ppm [7, 14]: < 25%; pest or weed control at 100 ppm (Erysiphe graminis—ERYSGT; [14]): < 25%; pest or weed control at 100 ppm (Septoria tritici—SEPTTR; [13]): < 25%; pest or weed control at 100 ppm [8, 14]: < 25% |
